According to US9387213B2, “Small molecules inhibiting oncoprotein Myc” (Health Research, Inc., priority 2012, dated 2016):
pIC50: −log10 of the molar value.

How the values were obtained:
SK-Mel-103 = test: Suppression of proliferation / senescence induction in melanoma line; format: cell-based; conditions: Homo sapiens
From the text: (§1) 260 analogs of N77A7 were selected from several commercially available libraries of small molecules based on the structural similarities with N77A7. The compounds were screened for the ability to permanently suppress proliferation and induce senescence in cells from melanoma lines SK-Mel-19 and SK-Mel-103. Based on the above-described screening procedure, seven small molecules were identified as having IC50 values lower than that of N77A7.

SK-Mel-19 = test: as above; format: cell-based; conditions: Homo sapiens, SK-MEL19
From the text: as §1

in vitro = conditions: microsomes, pH 7.4; for Percent Remaining 0 min: 0 h; for Percent Remaining 0 min / Percent Remaining 10 min / Percent Remaining 20 min / Percent Remaining 30 min / Percent Remaining 60 min: 1 μM; for Percent Remaining 30 min: 0.5 h; for Percent Remaining 60 min: 1 h
Protocol: Additionally, several of the N77A7 analogs were subjected to the test for the metabolic stability in human and mouse liver microsomes. Briefly, 1 μM of test compound was incubated with microsomal protein (human liver microsomes: 0.5 mg/mL; mouse liver microsomes 0.5 mg/mL) and buffer (100 mM potassium phosphate, pH 7.4, 5 mM magnesium chloride). The positive control was 5 μM testosterone. The reaction was equilibrated at 37 C in a shaking water bath for 3 to 5 minutes. After equilibration, an aliquot was removed and combined with 50/50 acetonitrile/water containing 0.1% formic acid and internal standard to terminate the reaction. 1 mM NADPH was immediately added and the tube was returned to the water bath. Five sample time points were taken (0, 10, 20, 30, and 60 minutes). Aliquots were removed and combined with 50/50 acetonitrile/water containing 0.1% formic acid and internal standard to terminate the reaction. The samples were mixed for 10 minutes and centrifuged. The supernatant from each sample was diluted (if necessary) and then transferred to vials for analysis by LC-MS/MS for the test compound and internal standard without calibration standards. The percent remaining at each time point was determined by the test compound's peak area response ratio versus the 0 minute sample.

HO-null cells = test: Secondary filter for Myc specificity: cell growth inhibition, methylene blue staining; format: cell-based; conditions: Rattus norvegicus, 72 h, read-out: ID50 HO-null
Protocol: (§2) FIG. 4 illustrates the myc specificity of tested compounds. Rat1a cells expressing c-myc, L-myc or N-myc or lacking any Myc (null) were treated for 72 h with a range of hit compound concentrations. The cells were then fixed and stained with methylene blue and the percentage of cells in the presence of compound compared to DMSO only control was calculated.
(§3) Validated hits were divided into classes when two or more compounds shared significant structural similarity. The ID50 for N-myc transactivation (the inhibitory dose resulting in 50% decrease in luciferase activity) for each hit was calculated from the dose-response N-myc responsive reporter assay. Compounds within each class were ranked by their ID50 for N-myc transactivation and the best compounds within each class were chosen for further studies. In addition, the best of the structurally unique compounds were also analyzed. A total of 46 hits were passed through a secondary filter designed to determine the specificity of the hits for Myc proteins. For this filter, we used a panel of cell lines derived from Rat1a cells (kindly provided by Michael Cole, Dartmouth University): HO-null-c-Myc deficient cells due to homologous recombination that express neither N-myc nor L-myc HO-c-Myc, HO-L-myc and HO-N-myc derived by retroviral transduction of the corresponding Myc genes into HO-null cells. Since each cell line expresses only a single Myc or no Myc family members, we could identify compounds that act through Myc family members as well as which Myc family members. […] The 18 Myc-specific compounds identified during the screening and filtering process are presented in Table 1 and represent distinct classes of molecules, including pyrazoles (e.g., N147A7, N47E10, N147G5), tetrazoles (e.g., N77A7) and 3-bromophenol (e.g., N4G6).

HO-N-myc cells = test: as above; format: cell-based, rat
Protocol: as §2, §3

HO-c-Myc cells = test: as above; format: cell-based, rat
Protocol: as §2, §3

[1] = test system: panel of tumor cell lines, including neuroblastoma and melanoma; test: Effect of Myc inhibitors against panel of tumor cell lines, growth/viability by MTS and resazurin; format: cell-based, human; conditions: neuroblastoma lines IMR32, NBL-WN, 72 h
Protocol: FIG. 6 illustrates putative Myc inhibitors that are efficacious against tumor but not normal cells. Melanocytes and melanoma (#3 and #10) (A) and neuroblastoma (B) were incubated in the continuous presence of Myc inhibitors for 72 h and cell growth/viability determined by standard MTS and resazurin methods, respectively. Data for three hits is presented as a percent of DMSO vehicle control.

SMILES | pIC50 (SK-Mel-103) | pIC50 (SK-Mel-19) | Percent Remaining 0 min (in vitro; human) [%] | Percent Remaining 10 min (in vitro; human) [%] | Percent Remaining 20 min (in vitro; human) [%] | Percent Remaining 30 min (in vitro; human) [%] | Percent Remaining 60 min (in vitro; human) [%] | half-life at 1 µM (in vitro; human) [min] | microsomal CLint at 1 μM (in vitro; human) [µL/min/mg] | Percent Remaining 0 min (in vitro; mouse) [%] | Percent Remaining 10 min (in vitro; mouse) [%] | Percent Remaining 20 min (in vitro; mouse) [%] | Percent Remaining 30 min (in vitro; mouse) [%] | Percent Remaining 60 min (in vitro; mouse) [%] | half-life at 1 µM (in vitro; mouse) [min] | microsomal CLint at 1 μM (in vitro; mouse) [µL/min/mg] | further results
CCN(CC)Cc1c(C(=O)N/N=C/c2ccc(N(CC)CC)cc2O)nnn1-c1nonc1N [Compound 6] | 6.60 | 6.46 | 100 | 49 | 31 | 18 | 6.9 | 11.5 | 120 | 100 | 20 | 8.9 | 4.3 | 1.2 | 4.6 | 300 | 
CCCN(CCC)Cc1c(C(=O)N/N=C/c2ccc(N(CC)CC)cc2O)nnn1-c1nonc1N [Compound 7] | 6.60 | 6.46 | 100 | 46 | 25 | 20 | 11 | 10.7 | 130 | 100 | 26 | 7.1 | 3.8 | 1.4 | 5.2 | 270 | 
COCc1cc(CN(C)C2CCCCC2)c(O)c2ncccc12 [Compound N269D8] |  |  |  |  |  |  |  |  |  |  |  |  |  |  |  |  | pIC50 (HO-null cells): 5.34; Myc Index N (HO-N-myc cells; ID50 in HO-null cells divided by ID50 in HO—N-myc cells): 5.3; pIC50 (HO-N-myc cells; Rattus norvegicus, cell growth inhibition, 72 h, methylene blue, read-out: ID50 HO—N-myc): 6.07; Myc Index C (HO-c-Myc cells; ID50 in HO-null cells divided by ID50 in HO-c-myc cells): 6.3; pIC50 (HO-c-Myc cells; Rattus norvegicus, cell growth inhibition, 72 h, methylene blue, read-out: ID50 HO-c-myc): 6.14; toxicity to N-myc amplified lines versus SH-EP cells [1]: more toxic to the N-myc amplified cell lines, IMR32 and NBL-WN than to SH-EP cells
